Reference: patent US20060252679A1, “Preventive and/or trerapeutic drgs for itch” (priority 2002, published 2006)
pIC50: −log10 of the molar value.

Assays:
GPR4 = biological target: T1, GPR4 (Homo sapiens, UniProt P46093); assay: Antagonistic action on GPR4 (luciferase reporter in GPR4 assay cells); assay type: cell-based; conditions: 17β-estradiol 10 nmol/L, 6 hours, luciferase luminescence
T1 construct: expressed in transfected cells; host or cells: KJMGER8 (Namalwa KJM-1 human B-cell line stably expressing Gal4-ER), stably co-transfected with pAGal9-GPR4 and the CRE-luciferase reporter pACREpluc
Experimental: Cells for GPR4 assay prepared in Referential Example 5 (said assay cells express GPR4 by stimulation with 17β-estradiol) were seeded on white plates at the rate of 10^5 cells/well, and a solution where 17β-estradiol (manufactured by Sigma) was diluted with a medium so as to make 10 nmol/L in the reaction solution and test compounds were added to the plate and the mixture was incubated at 37° C. for 6 hours in a 5% CO2 incubator. After that, a Steady Glo Luciferase Assay System (manufactured by Promega) solution was added to stop the reaction and the amount of luminescence during one second was measured using a Top Count (Packard, Meriden, Conn., U.S.A.).
Activity of the each of test compounds (antagonistic action) was expressed by an inhibition rate calculated on the basis of counts per second in the presence or absence of 17β-estradiol as shown by the following formula. IC50 value was calculated from the inhibition rate by a linear approximate analysis of the Logit-Log conversion method.
In the formula, A, B and C each have the following meaning, respectively.
A: counts per second when 17β-estradiol and the test compound were added
B: counts per second when neither 17β-estradiol nor the test compound was added
C: counts per second when only 17β-estradiol was added Inhibition Rate (%)=[1−{(A−B)/(C−B)}]×100
2 μl of plasmid pAGal9-GPR4 with inducible expression of GPR4 and 2 μl of reporter plasmid pACREpluc were co-transferred into 6×10^6 cell of KJMGER8 by the above-mentioned electroporation. The transformants were suspended in 8 ml of an RPMI 1640-ITPSG medium and cultured in a CO2 incubator at 37° C. for 24 hours. After the cultivation, blasticidin S ([…]), hygromycin B (300 μg/ml) and geneticin ([…]) were added and cultivation was carried out for 14 days more, and stable transformants (called GPR4 assay cells) were obtained. The transformants were subcultured in an RPMI 1640-ITPSG medium containing blasticidin S (2.0 μg/ml), hygromycin B (300 μg/ml) and geneticin ([…]).

Itching Induced by SPC = assay: Suppressive effect on itching induced by SPC (scratching behavior in mice); assay type: in vivo, ddY male mice; conditions: 300 mg/kg orally one hour before SPC (50 μg/site s.c.), counted for 60 minutes, ten mice per group
Experimental: SPC (50 μg/site) was subcutaneously administered (an SPC-administered group) to the rostal back of ddY male mice (3 to 4 weeks age), the mice were placed in a cage made of acrylic for the observation (7.5×7.5×15 cm) and behavior of the mice was taken by a video camera for 60 minutes in the absence of observing persons. The video camera was subjected to a playback and numbers of scratching behavior by hind limb were counted by visual observation. In a negative control group (a group to which a physiological saline was administered), a physiological saline (0.1 mL/site) was administered instead of SPC. In the compound-administered group, each compound 1 and compound 3 (300 mg/kg) was suspended in a 0.5 w/v % aqueous solution of methyl cellulose (MC) and orally administered at one hour before administration of SPC. In each of the SPC-administered group and the physiological saline-administered group, a 0.5 w/v % aqueous solution of MC (10 mL/kg) was orally administered at one hour before administration of SPC and physiological saline, respectively. The test was conducted for ten mice per group. Suppressive rate by the compounds for scratching behavior induced by SPC was calculated by the following formula. In the formula, A and B have the following meanings, respectively. […]

[1] = tested on: Itching Induced by Compound 48/80; assay: Effect on itching induced by Compound 48/80 (scratching behavior in mice); assay type: in vivo, ddY strain mice; conditions: 300 mg/kg orally one hour before Compound 48/80 (10 μg/site s.c.); for Numbers of Scratching Behavior (numbers/60 min): ten mice per group; for Suppressive rate(%) of scratching behavior induced by Compound 48/80: versus Compound 48/80-administered group
Experimental: Compound 48/80 (10 μg/site) was subcutaneously administered (a Compound 48/80-administered group) to the rostal back of ddY strain mice (4 weeks age), the mice were placed in a cage made of acrylic for the observation (7.5×7.5×15 cm) and behavior of the mice was taken by a video camera for 60 minutes in the absence of observing persons. The video camera was subjected to a playback and numbers of scratching behavior by hind limb were counted by visual observation. In a negative control group (a group to which a physiological saline was administered), a physiological saline (0.1 mL/site) was administered instead of Compound 48/80. In the compound-administered group, each compound 1 and compound 3 (300 mg/kg) was suspended in a 0.5 w/v % aqueous solution of methyl cellulose (MC) and orally administered at one hour before administration of Compound 48/80. In each of the Compound 48/80-administered group and the physiological saline-administered group, a 0.5 w/v % aqueous solution of MC was orally administered at one hour before administration of Compound 48/80 and physiological saline, respectively. The test was conducted for ten mice per group. Suppressive rate by the compound for scratching behavior induced by Compound 48/80 was calculated by the following formula.
In the formula, C and D have the following meanings.
C: numbers of scratching behavior of the Compound 48/80-administered group
D: numbers of scratching behavior of the compound-administered group Suppressive Rate (%)=[(C−D)/C]×100

[2] = tested on: Itching in Chronic Dermatitis Model to which Hapten was Repeatedly Applied; assay: Effect on itching in chronic dermatitis model to which hapten (oxazolone) was repeatedly applied; assay type: in vivo, BALB/c male mice; conditions: mean ± standard error, control group 264 ± 29
Experimental: Preparation of chronic dermatitis model to which hapten was repeatedly applied was conducted according to the method by Kitagaki, et al. [Journal of Investigative Dermatology, volume 105, pages 749-755 (1995)] with some modifications.
With regard to hapten, oxazolone (manufactured by Sigma-Aldrich) was used and dissolved in acetone (manufactured by Kanto Kagaku) to prepare a 0.5 w/v % solution of oxazolone in acetone (antigen solution). The antigen solution (10 μL) was applied to the rostal back of BALB/c male mice (6 weeks age) with the hair was shaved to sensitize the mice. Starting from 7 days thereafter (day 0), the antigen solution (10 μL) was repeatedly challenged to apply at the same site until day 16 every two or three days to prepare chronic dermatitis models.
Compound 1 was suspended in a 0.5 w/v % aqueous solution of MC in a concentration of 10 and 30 mg/mL, respectively, and orally administered at a dose of 10 mL/kg at 1 hour before application of the antigen solution on the day 16. As a control group, a group to which only 0.5 w/v % aqueous solution of MC was similarly administered per os was prepared. […]
In order to adjust the mice to new environment, they were allowed to place for one hour in a cage (7.5×8×15 cm) made of acrylic for observation. […] The numbers of scraching behavior by hind limb to the applied site and around there were counted.

T1 sequence (P46093 whole entry E215Q, the tested form may be a part): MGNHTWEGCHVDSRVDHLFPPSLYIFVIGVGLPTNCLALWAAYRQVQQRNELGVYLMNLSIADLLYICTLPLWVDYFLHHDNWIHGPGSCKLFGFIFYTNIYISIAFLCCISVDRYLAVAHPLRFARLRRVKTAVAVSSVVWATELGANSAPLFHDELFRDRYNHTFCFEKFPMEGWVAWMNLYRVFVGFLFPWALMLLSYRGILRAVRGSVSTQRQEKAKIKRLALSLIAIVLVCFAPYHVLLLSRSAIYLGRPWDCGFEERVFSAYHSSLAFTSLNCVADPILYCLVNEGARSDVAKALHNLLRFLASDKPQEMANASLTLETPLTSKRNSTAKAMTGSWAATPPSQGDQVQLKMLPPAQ

| pIC50 (GPR4) | Compound | Numbers of scratching behavior of the compound-administered group (Itching Induced by SPC) | Numbers of Scratching Behavior (numbers/60 min) [1] | Suppressive rate(%) of scratching behavior induced by Compound 48/80 [1] | Numbers of Scratching Behavior for 1 Hour after Application of Hapten ([2]; 100 mg/kg orally 1 hour before antigen application on day 16) | Numbers of Scratching Behavior for 1 Hour after Application of Hapten ([2]; 300 mg/kg orally 1 hour before antigen application on day 16) |
| --- | --- | --- | --- | --- | --- | --- |
| 8.40 | CCc1nc2c(C)cc(C)nc2n1Cc1ccc2c(c1)CCc1cc(CN3CCN(C)CC3)ccc1N2 [Compound 1, 2-(2-Ethyl-5,7-dimethyl-3H-imidazo[4,5-b]pyridin-3-ylmethyl)-8-(4-methylpiperazin-1-ylmethyl)-10,11-dihydro-5H-dibenz[b,f]azepine] | 13 | 16 numbers/60 min | 54% | 138 ± 33 | 2 ± 1 |
| 8.49 | CCc1nc2c(C)cc(C)nc2n1Cc1ccc2c(c1)CCc1cc(CN3CC=CCC3)ccc1N2 [Compound 2, 2-(2-Ethyl-5,7-dimethyl-3H-imidazo[4,5-b]pyridin-3-ylmethyl)-8-(1,2,5,6-tetrahydropyridin-1-ylmethyl)-10,11-dihydro-5H-dibenz[b,f]azepine] |  |  |  |  |  |
| 8.64 | CCc1nc2c(C)cc(C)nc2n1Cc1ccc2c(c1)CCc1cc(CN3CCCC3)ccc1N2 [Compound 3, 2-(2-Ethyl-5,7-dimethyl-3H-imidazo[4,5-b]pyridin-3-ylmethyl)-8-(pyrrolidin-1-ylmethyl)-10,11-dihydro-5H-dibenz[b,f]azepine] | 18 | 26 numbers/60 min | 52% |  |  |
| 8.24 | CCc1nc2c(C)cc(C)nc2n1Cc1ccc2c(c1)CCc1cc(CN3CCOCC3)ccc1N2 [Compound 4, 2-(2-Ethyl-5,7-dimethyl-3H-imidazo[4,5-b]pyridin-3-ylmethyl)-8-morpholinomethyl-10,11-dihydro-5H-dibenz[b,f]azepine] |  |  |  |  |  |
| 7.85 | CCc1nc2c(C)cc(C)nc2n1Cc1ccc2c(c1)CCc1cc(CN3CC(C)CC(C)C3)ccc1N2 (stereo not shown) [Compound 5] |  |  |  |  |  |
